In PubChem BioAssay (NCI):
“And” between values parts separate entries of the source, which are not always exact repeats. Identical values can stand only once.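 All cell lines were grown in 96-well plates and treated with compound for 48 hours. The concentration for 50% growth inhibition is given as GI50. TGI denotes the concentration required for complete inhibition of growth.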

Columns and labels:
Assay in all cases: NCI-60 cell line screen, 48 h
786-0 renal = tested on: 786-0 renal
BT-549 breast = tested on: BT-549 breast
CAKI-1 renal = tested on: CAKI-1 renal
HL-60(TB) leukemia = tested on: HL-60(TB) leukemia
HS 578T breast = tested on: HS 578T breast
M14 melanoma = tested on: M14 melanoma
MDA-MB-231 breast = tested on: MDA-MB-231 breast
NCI-H226 lung = tested on: NCI-H226 lung
RPMI-8226 leukemia = tested on: RPMI-8226 leukemia
T-47D breast = tested on: T-47D breast

Compound | GI50 (786-0 renal) [µM] | GI50 (BT-549 breast) [µM] | TGI (BT-549 breast) [µM] | GI50 (CAKI-1 renal) [µM] | TGI (CAKI-1 renal) [µM] | GI50 (HL-60(TB) leukemia) [µM] | GI50 (HS 578T breast) [µM] | TGI (HS 578T breast) [µM] | GI50 (M14 melanoma) [µM] | TGI (M14 melanoma) [µM] | GI50 (MDA-MB-231 breast) | TGI (MDA-MB-231 breast) [µM] | GI50 (NCI-H226 lung) [µM] | TGI (NCI-H226 lung) [µM] | GI50 (RPMI-8226 leukemia) | TGI (RPMI-8226 leukemia) [µM] | GI50 (T-47D breast) | TGI (T-47D breast) [µM] | TGI (786-0 renal) [µM] | TGI (HL-60(TB) leukemia) [µM]
O=c1[nH]c(=O)n(C2CC(O)C(CO)O2)cc1C(F)(F)F (configuration not stated) | 0.464 | 4.61 | > 100 | 1.79 | > 100 | 0.409 | > 100 | > 100 | 1.01 | > 34.5 | > 100 µM | > 100 | 20.7 | > 100 | > 20.3 µM | > 100 | 3.34 µM | > 100 | – | –
N#Cc1cccc(N2C(=O)C3C4C=CC(C3C2=O)C2C(=O)N(c3cccc(C#N)c3)C(=O)C42)c1 (configuration not stated) | – | – | 72.1 | – | > 87 | – | – | > 95.5 | – | > 63.1 | – | > 100 | – | > 63.1 | – | > 56.2 | – | > 31.6 | > 63.1 | > 100
COc1ccc(S(=O)(=O)N(C(C)=O)c2ccccc2/C=C/c2cc[n+]([O-])cc2)cc1 | 1.67 | 0.56 | > 10 | 0.588 | > 10 | 0.64 | 0.404 | > 10 | 0.388 | 8.08 | 1.26 µM | > 10 | 2.48 | > 10 | 0.953 µM | > 10 | 3.84 µM | > 10 | > 10 | > 6.53
C=C(C)[C@@H]1CC[C@]2(C(=O)NS(=O)(=O)c3ccccc3)CC[C@]3(C)[C@H](CC[C@@H]4[C@@]5(C)CC[C@H](OC(=O)NS(=O)(=O)c6ccccc6)C(C)(C)[C@@H]5CC[C@]43C)[C@@H]12 | 2.42 | 1.79 | 6.31 | 3.06 | 22.5 | 2.24 | 1.49 | 10.1 | 1.99 | 6.89 | 2.92 µM | 12.1 | 2.38 | 13.8 | 1.37 µM | 6.18 | 1.74 µM | 7.37 | 6.93 | 5.08
COc1cc(NCCCCCN=C(N)NC(N)=NC(C)C)c2ncccc2c1 | 12.2 | 2.03 | 5.61 | > 73.1 | > 100 | 0.575 | 2.45 | 12.7 | 6.12 | 20.1 | 0.531 µM | 4.47 | 7.52 | 24.8 | 1.26 µM | 20 | 0.302 µM | 1.71 | 26.6 | 3.46
O=C(Nc1cccc(C(F)(F)F)c1)Oc1ccc(Cl)c2cccnc12 | 5.09 | 0.524 | 3.69 | 2.03 | 4.79 | 0.776 | 3.56 | > 24 | 1.49 | 7.83 | 2.11 µM | 6.15 | 2.25 | 5.75 | 0.561 µM | 4.22 | 1.8 µM | > 28.2 | 15.4 | –
COC(=O)[C@H](Cc1cn(C)cn1)NC(=O)[C@H](Cc1ccccc1)NC(=O)Nc1cc(C(F)(F)F)cc(C(F)(F)F)c1 | 16.8 | 19.2 | 34.5 | 17.1 | 31.7 | 16.5 | 15.1 | 45.1 | 13.5 | 28.5 | 5.03 µM and 7.85 µM | 21.2 | 19.8 | 43.8 | 7.49 µM and 11 µM | 31.5 | 3.54 µM and 8.29 µM | 27 | 31.9 | 32.7
